Laboratory results as given in US20130115178A1, “TANNING ENHANCERS AND SELF-TANNING SUBSTANCES” (MERCK PATENT GESELLSCHAFT MIT BESCHRANKTER HAFTUNG, priority 2010, published 2013).
Several values for one entry are separate records, joined by “and”; a condition that tells them apart may be missing. Identical values can stand only once.

Legend:
[1] = In-vitro investigation of DHA and DHA/glucuronolactone (Liquidskin model, L-a-b values); settings: 37° C., pH 7
[2] = tested on: B16V mouse melanoma cells; test: B16 V mouse melanoma cell test (melanin concentration); type: cell-based; settings: for Melanin concentration %: relative to blank DMSO + α-MSH = 100%
Method: Description of the performance of the B16 V mouse melanoma cell test:
B16V mouse melanoma cells (manufacturer: DSMZ; Article No,: ACC370) in RPMI medium (Invitrogen, Article No.: 31870), to which 10% of FBS (foetal bovine serum, Invitrogen, Article No: 10499044), 2 mM L-glutamine (Invitrogen, Article No: 25030) and 1 mM sodium pyruvate (Invitrogen, Article No:11360) had additionally been added (modified RPMI medium), are transferred into a culture bottle and incubated at 37° C. and 5% CO2 for 72 h. The medium is separated off, and the cells are washed with 10 ml of D-PBS (Invitrogen, Article No. 14190) and subsequently filtered off with suction. 1 ml of HyQtase cell detachment solution (Hyclone, Article No. SV30030.01) is added to the cells. The bottle is swirled a number of times, and the HyQtase cell detachment solution is subsequently removed by suction. The cells are then incubated in the incubator at 37° C. and 5% CO2 for 5 min. The cells are taken up in the modified RPMI medium (Invitrogen, Article No.: 31870), and the cell count is determined. To this end, the cells are stained with Tryptan Blue and counted in a Neubauer chamber. The cells are subsequently sown out again in the modified RPMI medium in a defined cell count of 80,000 cells per well (6-well clear plate, TCT, PS (Nunc)).
The plate is subsequently incubated at 37° C. and 5% CO2 for 24 h, the medium is then removed. […]
After the final incubation period, the medium is removed by suction, and the cells are washed with 1000 μl of D-PBS (Invitrogen, Article No. 14190). […] The cell count is subsequently determined. To this end, the cells are stained with Tryptan Blue and counted in a Neubauer chamber. […] 200 μl are then pipetted as quadruple determination (per cup) into a 96-well plate (VWR, Article No. 4100636981), and the absorption at a wavelength of 405 nm is determined. […] The content of melanin can be determined in this way by means of a calibration line.
The other values were determined relative to the blank sample with dimethyl sulfoxide (DMSO) and a-MSH, whose measurement was set at 100%

[3] = tested on: explants from the stomach tissue of a pale-skinned person (type); test: Ex-vivo study: chromametric colour measurement of skin explants; parameters: species or system human; key: change in the L*a*b* a value from D0; settings: D5 vs D0; single explants; listed as P2
[4] = tested on: explants from the stomach tissue of a pale-skinned person (type); test: as above; parameters: species or system human; key to b / a: CIE L*a*b* colour coordinates, Minolta CR-300 chromameter, D65
Method: 12 explants from the stomach tissue of a pale-skinned person (type) having an average diameter of 10 mm are prepared (reference: P831-AB49).
The explants are kept in a BEM medium (B10-EC's explants medium) at 37° C. in a moist atmosphere comprising 5% of CO2.
The following samples are tested: (in each case 3 explants), where the solutions of the corresponding substances used comprise 90% of water and 10% of ethanol.
Glucuronolactone is employed in the bicyclic form.
2 μl of the respective sample are added to the explants and distributed for the first time (D0), 1 day later (D1), 2 days later (D2), 3 days later (D3) and 4 days later (D4). The colour of the explants is determined chromametrically. The measurements are carried out on addition (D0), on day 1 (D1), on day 5 (D5) and on day 11 (D11).
The colour measurements are carried out using a Minolta CR-300 Chroma-meter, and the L, a and b values are read off correspondingly on the instrument.
The following parameters are set:
A colour area is present here which is viewed at a viewing angle of 2 degrees. This viewing angle is used as standard in the chromametric measurement. • Irradiation source D65, corresponding to daylight • Region of the measurement: 3 mm • Parameters used: L*a*b*
The sample is placed on the bearing rail with the epidermis facing downwards. The irradiation is carried out from the underside through the area indicated (3 mm).
In the colorimetric determinations <<L a b>>, the L value determines the contrast of the skin. If the L value drops, the skin appears darker.
Δa after one day is calculated as follows: […]

[5] = D0 (on addition), single explants, n=3, listed as P2
[6] = D1, single explants, n=3, listed as P2
[7] = D5, single explants, n=3, listed as P2
[8] = D11, single explants, n=3, listed as P2

## O=C(CO)CO [DHA, 1,3-dihydroxyacetone]
[1]; after 6 hours
  L: 86.1
  a: 13.4
  b: 39.9
[1]; after 24 hours
  L: 61.3
  a: 31.7
  b: 75.0
[1]; after one hour
  L: 99.4
  a: 0.4
  b: 1.3

## O=C[C@H](O)[C@H]1OC(=O)[C@@H](O)[C@H]1O [Glucuronolactone]
[2]; 10 mM + α-MSH (10^−8 M)
  Melanin concentration %: 46.9%
[2]; 10 mM, without α-MSH
  Melanin concentration %: 56.7%
[2]; cell culture tests with B16V mouse melanoma cells
  melanin production: reduce melanin production
[3]
  Δa: 0.25 and 0.22 and 0.26
[4]; [5]
  L: 64.07 and 62.49 and 62.34
  b: 17.1 and 17.34 and 16.15
[4]; [6]
  L: 65.12 and 64.59 and 62.71
  b: 17.81 and 17.14 and 16.29
[4]; [7]
  L: 62.73 and 63.62 and 63.56
  b: 16.51 and 16.88 and 15.95
[4]; [8]
  L: 64.22 and 65.7 and 62.69
  a: 1.87 and 2.44 and 2.65
  b: 14.34 and 15.04 and 15.57
[4]; explants, glucuronolactone 1%
  skin colour in comparison with the untreated sample: darkening of the skin
